Converted amounts (≈) assume the structure as drawn.
Columns and labels:
[1] = tested on: Escherichia coli; experiment: Antibacterial activity against Escherichia coli at 50 ug/mL; assay type: functional; conditions: read-out: IZ
[2] = tested on: Escherichia coli; experiment: Antibacterial activity against Escherichia coli at 100 ug/mL; assay type: functional; conditions: read-out: IZ
[3] = tested on: Bacillus subtilis; experiment: Antibacterial activity against Bacillus subtilis at 50 ug/mL; assay type: functional; conditions: read-out: IZ
[4] = tested on: Bacillus subtilis; experiment: Antibacterial activity against Bacillus subtilis at 100 ug/mL; assay type: functional; conditions: read-out: IZ
[5] = tested on: Aspergillus flavus; experiment: Antifungal activity against Aspergillus flavus at 50 ug/mL; assay type: functional; conditions: read-out: IZ
[6] = tested on: Aspergillus flavus; experiment: Antifungal activity against Aspergillus flavus at 100 ug/mL; assay type: functional; conditions: read-out: IZ
[7] = tested on: Penicillium citrinum; experiment: Antifungal activity against Penicillium citrinum at 50 ug/mL; assay type: functional; conditions: read-out: IZ
[8] = tested on: Penicillium citrinum; experiment: Antifungal activity against Penicillium citrinum at 100 ug/mL; assay type: functional; conditions: read-out: IZ
[9] = tested on: Fusarium oxysporum; experiment: Antifungal activity against Fusarium oxysporum at 50 ug/mL; assay type: functional; conditions: read-out: IZ
[10] = tested on: Fusarium oxysporum; experiment: Antifungal activity against Fusarium oxysporum at 100 ug/mL; assay type: functional; conditions: read-out: IZ
[11] = tested on: Escherichia coli; experiment: Antibacterial activity against Escherichia coli; assay type: functional
[12] = tested on: Bacillus subtilis; experiment: Antibacterial activity against Bacillus subtilis; assay type: functional
[13] = tested on: Aspergillus flavus; experiment: Antifungal activity against Aspergillus flavus; assay type: functional
[14] = tested on: Penicillium citrinum; experiment: Antifungal activity against Penicillium citrinum; assay type: functional
[15] = tested on: Fusarium oxysporum; experiment: Antifungal activity against Fusarium oxysporum; assay type: functional
[16] = tested on: Salmonella typhi; experiment: Antibacterial activity against Salmonella typhi
[17] = tested on: Salmonella typhi; experiment: Antibacterial activity against Salmonella typhi at 50 ug/mL; conditions: read-out: IZ
[18] = tested on: Salmonella typhi; experiment: Antibacterial activity against Salmonella typhi at 100 ug/mL; conditions: read-out: IZ

| SMILES | MIC [11] | MIC [12] | MIC [13] | MIC [14] | MIC [15] | MIC [16] | zone of inhibition at 50 µg/mL [1] | zone of inhibition at 100 µg/mL [2] | zone of inhibition at 50 µg/mL [3] | zone of inhibition at 100 µg/mL [4] | zone of inhibition at 50 µg/mL [5] | zone of inhibition at 100 µg/mL [6] | zone of inhibition at 50 µg/mL [7] | zone of inhibition at 100 µg/mL [8] | zone of inhibition at 50 µg/mL [9] | zone of inhibition at 100 µg/mL [10] | zone of inhibition at 50 µg/mL [17] | zone of inhibition at 100 µg/mL [18] |
| --- | --- | --- | --- | --- | --- | --- | --- | --- | --- | --- | --- | --- | --- | --- | --- | --- | --- | --- |
| O=C(Cn1ncc2cc([N+](=O)[O-])ccc21)NN1C(=O)CSC1c1ccccc1 (centres undefined) | 18 µg/mL (≈ 45.3 µM) | 23 µg/mL (≈ 57.9 µM) | 19 µg/mL (≈ 47.8 µM) | 25 µg/mL (≈ 62.9 µM) | 15 µg/mL (≈ 37.7 µM) | 18 µg/mL (≈ 45.3 µM) | 17.2 mm | 19.1 mm | 13.5 mm | 17.4 mm | 16 mm | 19 mm | 14.8 mm | 18.4 mm | 17.1 mm | 20 mm | 14.6 mm | 18.4 mm |
| O=C(Cn1ncc2cc([N+](=O)[O-])ccc21)N/N=C/c1ccccc1Br | 18 µg/mL (≈ 44.8 µM) | 22 µg/mL (≈ 54.7 µM) | 19 µg/mL (≈ 47.2 µM) | 28 µg/mL (≈ 69.6 µM) | 15 µg/mL (≈ 37.3 µM) | 18 µg/mL (≈ 44.8 µM) | 16.8 mm | 19.4 mm | 14 mm | 17.4 mm | 16.4 mm | 19.4 mm | 13.3 mm | 18 mm | 17.8 mm | 19.8 mm | 15 mm | 19 mm |
| COc1ccccc1C1SCC(=O)N1NC(=O)Cn1ncc2cc([N+](=O)[O-])ccc21 (centres undefined) | 20 µg/mL (≈ 46.8 µM) | 30 µg/mL (≈ 70.2 µM) | 20 µg/mL (≈ 46.8 µM) | 28 µg/mL (≈ 65.5 µM) | 17 µg/mL (≈ 39.8 µM) | 22 µg/mL (≈ 51.5 µM) | 14.8 mm | 17.2 mm | 11.5 mm | 15 mm | 13.9 mm | 16.8 mm | 12.5 mm | 16 mm | 15 mm | 18 mm | 13 mm | 16.1 mm |
| CCOC(=O)Cn1ncc2cc([N+](=O)[O-])ccc21 | 35 µg/mL (≈ 140 µM) | 45 µg/mL (≈ 181 µM) | 34 µg/mL (≈ 136 µM) | 40 µg/mL (≈ 160 µM) | 30 µg/mL (≈ 120 µM) | 38 µg/mL (≈ 152 µM) | 5 mm | 8 mm | 3 mm | 5 mm | 5.8 mm | 8 mm | 4 mm | 6 mm | 6.5 mm | 9 mm | 4 mm | 7 mm |
| COc1ccc(/C=N/NC(=O)Cn2ncc3cc([N+](=O)[O-])ccc32)cc1 | 25 µg/mL (≈ 70.8 µM) | 38 µg/mL (≈ 108 µM) | 22 µg/mL (≈ 62.3 µM) | 32 µg/mL (≈ 90.6 µM) | 18 µg/mL (≈ 50.9 µM) | 25 µg/mL (≈ 70.8 µM) | 12.6 mm | 15 mm | 10 mm | 13.9 mm | 12.2 mm | 15.1 mm | 10 mm | 14 mm | 13.9 mm | 16.2 mm | 11 mm | 14.8 mm |
| O=C(Cn1ncc2cc([N+](=O)[O-])ccc21)N/N=C/c1ccccc1[N+](=O)[O-] | 15 µg/mL (≈ 40.7 µM) | 17 µg/mL (≈ 46.2 µM) | 14 µg/mL (≈ 38 µM) | 20 µg/mL (≈ 54.3 µM) | 11 µg/mL (≈ 29.9 µM) | 15 µg/mL (≈ 40.7 µM) | 20 mm | 22.8 mm | 18 mm | 21 mm | 21.4 mm | 24 mm | 18 mm | 22.7 mm | 22 mm | 24.2 mm | 19 mm | 22.8 mm |
| O=C(Cn1ncc2cc([N+](=O)[O-])ccc21)NN1C(=O)CSC1c1ccccc1Cl (centres undefined) | 13 µg/mL (≈ 30.1 µM) | 17 µg/mL (≈ 39.4 µM) | 14 µg/mL (≈ 32.4 µM) | 17 µg/mL (≈ 39.4 µM) | 11 µg/mL (≈ 25.5 µM) | 15 µg/mL (≈ 34.7 µM) | 21.4 mm | 24.5 mm | 18 mm | 22.6 mm | 21.3 mm | 24 mm | 19.4 mm | 23.5 mm | 22 mm | 25 mm | 19.2 mm | 23 mm |
| O=C(Cn1ncc2cc([N+](=O)[O-])ccc21)N/N=C/c1cccc([N+](=O)[O-])c1 | 15 µg/mL (≈ 40.7 µM) | 16 µg/mL (≈ 43.4 µM) | 13 µg/mL (≈ 35.3 µM) | 18 µg/mL (≈ 48.9 µM) | 11 µg/mL (≈ 29.9 µM) | 15 µg/mL (≈ 40.7 µM) | 20.9 mm | 23.5 mm | 18.7 mm | 21.9 mm | 22.5 mm | 24.9 mm | 19 mm | 23.8 mm | 22.9 mm | 25.4 mm | 20 mm | 23.6 mm |
| O=C(Cn1ncc2cc([N+](=O)[O-])ccc21)N/N=C/c1ccccc1O | 20 µg/mL (≈ 58.9 µM) | 25 µg/mL (≈ 73.7 µM) | 19 µg/mL (≈ 56 µM) | 28 µg/mL (≈ 82.5 µM) | 15 µg/mL (≈ 44.2 µM) | 20 µg/mL (≈ 58.9 µM) | 15.4 mm | 18 mm | 12.8 mm | 16 mm | 14.9 mm | 18 mm | 12 mm | 16.8 mm | 16.2 mm | 18.5 mm | 13.8 mm | 17.5 mm |

Further lines, with some results ahead:

| MIC [11] | MIC [12] | MIC [13] | MIC [14] | MIC [15] | MIC [16] | SMILES | zone of inhibition at 50 µg/mL [1] | zone of inhibition at 100 µg/mL [2] | zone of inhibition at 50 µg/mL [3] | zone of inhibition at 100 µg/mL [4] | zone of inhibition at 50 µg/mL [5] | zone of inhibition at 100 µg/mL [6] | zone of inhibition at 50 µg/mL [7] | zone of inhibition at 100 µg/mL [8] | zone of inhibition at 50 µg/mL [9] | zone of inhibition at 100 µg/mL [10] | zone of inhibition at 50 µg/mL [17] | zone of inhibition at 100 µg/mL [18] |
| --- | --- | --- | --- | --- | --- | --- | --- | --- | --- | --- | --- | --- | --- | --- | --- | --- | --- | --- |
| 20 µg/mL (≈ 46.8 µM) | 25 µg/mL (≈ 58.5 µM) | 19 µg/mL (≈ 44.5 µM) | 28 µg/mL (≈ 65.5 µM) | 15 µg/mL (≈ 35.1 µM) | 20 µg/mL (≈ 46.8 µM) | COc1ccc(C2SCC(=O)N2NC(=O)Cn2ncc3cc([N+](=O)[O-])ccc32)cc1 (centres undefined) | 16 mm | 18 mm | 12.4 mm | 16 mm | 14.8 mm | 17.7 mm | 13.6 mm | 17 mm | 16 mm | 18.9 mm | 13.8 mm | 17 mm |
| 15 µg/mL (≈ 31.5 µM) | 18 µg/mL (≈ 37.8 µM) | 17 µg/mL (≈ 35.7 µM) | 20 µg/mL (≈ 42 µM) | 13 µg/mL (≈ 27.3 µM) | 17 µg/mL (≈ 35.7 µM) | O=C(Cn1ncc2cc([N+](=O)[O-])ccc21)NN1C(=O)CSC1c1cccc(Br)c1 (centres undefined) | 20.2 mm | 23 mm | 16.9 mm | 21.4 mm | 20 mm | 22.8 mm | 18 mm | 22 mm | 20.8 mm | 23.7 mm | 18 mm | 21.9 mm |
| 22 µg/mL (≈ 49.9 µM) | 36 µg/mL (≈ 81.7 µM) | 22 µg/mL (≈ 49.9 µM) | 30 µg/mL (≈ 68.1 µM) | 18 µg/mL (≈ 40.9 µM) | 25 µg/mL (≈ 56.8 µM) | CN(C)c1ccc(C2SCC(=O)N2NC(=O)Cn2ncc3cc([N+](=O)[O-])ccc32)cc1 (centres undefined) | 13.5 mm | 16 mm | 10.4 mm | 13.8 mm | 12.6 mm | 15.4 mm | 11.4 mm | 14.5 mm | 13.9 mm | 16.8 mm | 11.5 mm | 14.9 mm |
| 31 µg/mL (≈ 91.9 µM) | 42 µg/mL (≈ 125 µM) | 30 µg/mL (≈ 88.9 µM) | 38 µg/mL (≈ 113 µM) | 25 µg/mL (≈ 74.1 µM) | 34 µg/mL (≈ 101 µM) | Cc1ccc(/C=N/NC(=O)Cn2ncc3cc([N+](=O)[O-])ccc32)cc1 | 9 mm | 11 mm | 6 mm | 9 mm | 8 mm | 11 mm | 7.1 mm | 10 mm | 10.8 mm | 12.6 mm | 7 mm | 10 mm |

— ChEMBL document CHEMBL1240428, “Conventional and microwave assisted synthesis of some new N-[(4-oxo-2-substituted aryl -1, 3-thiazolidine)-acetamidyl]-5-nitroindazoles and its antimicrobial activity” (2010)
